The values that follow come from US20160158368A1, “METHODS AND COMPOSITIONS FOR THE TREATMENT OF HISTIOCYTOSIS” (Therapure Biopharma Inc., priority 2014, published 2016).

One assay concerns SU-DHL-1 cells. Description: PrestoBlue cell viability assay, SU-DHL-1 cells. Type of assay: cell-based, human. The settings on record: for growth inhibition: SU-DHL-1 cells.
The next assay deals with U937 cells. The assay is described as follows: PrestoBlue cell viability assay, U937 cells. It counts as cell-based, human. The following applies: for growth inhibition: U937 cells.

Consider “hemoglobin: human hemoglobin, a CD163 ligand, unconjugated control”, for which the growth inhibition result with SU-DHL-1 cells and in the assay on U937 cells was “not” in each case.

As for `Nc1nc(Cl)nc2c1ncn2C1CC(O)C(CO)O1` (stereo not drawn) [cladribine, 5-(6-amino-2-chloro-purin-9-yl)-2-(hydroxymethyl)oxolan-3-ol], the IC50 in the assay on SU-DHL-1 cells (Homo sapiens, SU-DHL-1, 48 hours, cell viability, n=3, read-out: average half maximal inhibitory concentration (IC50)) is 204 nM; in the assay on U937 cells (Homo sapiens, U-937, U937, 48 hours, cell viability, n=3, read-out: average half maximal inhibitory concentration (IC50)), 42 nM. The growth inhibition result in the assay on SU-DHL-1 cells and in the assay with U937 cells was “dose-dependent growth inhibition” throughout.
